Results taken from US10801035B2, “Plants having increased tolerance to herbicides” (BASF SE, priority 2011, dated 2020).

What was measured:
[1] = target: T1, Hordeum HPPD (SEQ ID: 1/2) (Hordeum vulgare, UniProt O48604, A164G/R146V/R147D/R148G); test: HPPD activity assay, wildtype Hordeum HPPD; type: biochemical; details: for Ki: Cheng-Prusoff from IC50, read-out: Ki (dissociation constant); for TI (tolerance index): not normalized
T1 construct: His6; made in house; host or cells: E. coli BL21 (DE3)
Protocol: (§1) HPPD produces homogentisic acid and CO2 from 4-hydroxyphenylpyruvate (4-HPP) and O2. The activity assay for HPPD is based on the analysis of homogentisic acid by reversed phase HPLC.
(§2) The assay mixture can contain 150 mM potassium phosphate buffer pH 7.0, 50 mM L-ascorbic acid, 1 μM FeSO4 and 7 μg of purified enzyme in a total volume of 1 ml. Inhibitors are dissolved in DMSO (dimethylsulfoxide) to a concentration of 20 mM or 0.5 mM, respectively. From this stock solution serial five-fold dilutions are prepared in DMSO, which are used in the assay. The respective inhibitor solution accounts for 1% of the assay volume. Thus, final inhibitor concentrations range from 200 μM to 2.5 nM or from 5 μM to 63 pM, respectively. After a preincubation of 30 min the reaction is started by adding 4-HPP to a final concentration of 0.1 mM. The reaction is allowed to proceed for 120 min at room temperature. The reaction is stopped by addition of 100 μl of 4.5 M phosphoric acid.
Activities are normalized by setting the uninhibited enzyme activity to 100%. […] values are calculated using non-linear regression.
The assay mixture can contain 150 mM potassium phosphate buffer pH 7.0, 50 mM L-ascorbic acid, 100 μM Catalase (Sigma-Aldrich), 1 μM FeSO4 and 0.2 units of purified HPPD enzyme in a total volume of 505 μl. 1 unit is defined as the amount of enzyme that is required to produce 1 nmol of HGA per minute at 20° C.
Inhibitors are dissolved in DMSO (dimethylsulfoxide) to a concentration of 0.5 mM. From this stock solution serial five-fold dilutions are prepared in DMSO, which are used in the assay. The respective inhibitor solution accounts for 1% of the assay volume. Thus, final inhibitor concentrations range from 5 μM to 320 pM, respectively. Activities are normalized by setting the uninhibited enzyme activity to 100%. IC50 values are calculated using non-linear regression.
Using methods which are described in the above examples or well known in the art, purified, recombinant wildtype HPPD enzymes are characterized with respect to their kinetic properties and sensitivity towards HPPD inhibiting herbicides. Apparent michaelis constants (Km) and maximal reaction velocities (Vmax) are calculated by non-linear regression with the software GraphPad Prism 5 (GraphPad Software, La Jolla, USA) using a substrate inhibition model. Apparent kcat values are calculated from Vmax assuming 100% purity of the enzyme preparation. Weighted means (by standard error) of Km and […] values are calculated from at least three independent experiments. The Cheng-Prusoff equation for competitive inhibition (Cheng, Y. C.; Prusoff, W. H. Biochem Pharmacol 1973, 22, 3099-3108) is used to calculate dissociation constants (Ki).
Field performance of the HPPD enzyme, which is used as a herbicide tolerance trait may depend not only on its lack of sensitivity towards HPPD inhibiting herbicides but also on its activity. To assess the potential performance of a herbicide tolerance trait a tolerance index (TI) is calculated using the following formula: […]
Easy comparison and ranking of each trait is enabled by normalizing every tolerance index on Hordeum HPPD.

[2] = system: Kordia HPPD; test: HPPD activity assay, Kordia HPPD; type: biochemical; details: normalized on Hordeum HPPD
Protocol: as §1
(§3) The assay mixture can contain 150 mM potassium phosphate buffer pH 7.0, 50 mM L-ascorbic acid, 1 μM FeSO4 and 7 μg of purified enzyme in a total volume of 1 ml. Inhibitors are dissolved in DMSO (dimethylsulfoxide) to a concentration of 20 mM or 0.5 mM, respectively. From this stock solution serial five-fold dilutions are prepared in DMSO, which are used in the assay. The respective inhibitor solution accounts for 1% of the assay volume. […]
(§4) Activities are normalized by setting the uninhibited enzyme activity to 100%. […] values are calculated using non-linear regression. […]
(§5) Inhibitors are dissolved in DMSO (dimethylsulfoxide) to a concentration of 0.5 mM. […] IC50 values are calculated using non-linear regression.
(§6) Using methods which are described in the above examples or well known in the art, purified, recombinant wildtype HPPD enzymes are characterized with respect to their kinetic properties and sensitivity towards HPPD inhibiting herbicides. Apparent michaelis constants (Km) and maximal reaction velocities (Vmax) are calculated by non-linear regression with the software GraphPad Prism 5 (GraphPad Software, La Jolla, USA) using a substrate inhibition model. […]

[3] = system: Rhodococcus HPPD1; test: HPPD activity assay, Rhodococcus HPPD1; type: biochemical; details: normalized on Hordeum HPPD
Protocol: as §1, §3, §4, §5, §6

[4] = target: T2, Hordeum HPPD variant L353M, P321R, V212I (Hordeum vulgare, UniProt O48604, L353M/P321R/V212I); test: HPPD activity assay, Hordeum HPPD mutant L353M, P321R, V212I; type: biochemical; details: normalized on wildtype
T2 construct: His6; made in house; host or cells: E. coli BL21 (DE3)
Protocol: as §1
as §2, with “The reaction is allowed to proceed for 120 min at room temperature. The reaction is stopped by addition of 100 μl of 4.5 M phosphoric acid.” left out
as §5
(§7) Purified, mutant HPPD enzymes are obtained by the methods described above. […] Apparent michaelis constants (Km) and maximal reaction velocities (Vmax) are calculated by non-linear regression with the software GraphPad Prism 5 (GraphPad Software, La Jolla, USA) using a substrate inhibition model. […] Weighted means (by standard error) of Km and […] values are calculated from at least three independent experiments. […]

[5] = target: T3, Arabidopsis HPPD variant M335H, P336A, E363Q (Arabidopsis thaliana, UniProt P93836, E363Q/M335H/P336A); test: HPPD activity assay, Arabidopsis HPPD mutant M335H, P336A, E363Q; type: biochemical; details: normalized on wildtype
T3 construct: His6 (N); made in house; host or cells: E. coli BL21 (DE3)
Protocol: as §1
as §2, with “The reaction is allowed to proceed for 120 min at room temperature. The reaction is stopped by addition of 100 μl of 4.5 M phosphoric acid.” left out
as §5, §7

[6] = system: Arabidopsis wildtype control plants; test: Arabidopsis growth inhibition in 48-well plates, wildtype control; type: in vivo, Arabidopsis thaliana; details: plant growth IC50 divided by that of wildtype plants
Protocol: Depending on the species, the plants are kept at 10-25° C. or 20-35° C. The test period extends over 3 weeks. During this time, the plants are tended and their response to the individual treatments is evaluated. Herbicide injury evaluations are taken at 2 and 3 weeks after treatment. Plant injury is rated on a scale of 0 to 9, 0 being no injury and 9 being complete death. Tolerance to coumarone-derivative herbicides can also be assessed in Arabidopsis. In this case transgenic Arabidopsis thaliana plants are assayed for improved tolerance to coumarone-derivative herbicides in 48-well plates. Seeds are surface sterilized by stirring for 5 min in ethanol+water (70+30 by volume), rinsing one time with ethanol+water (70+30 by volume) and two times with a sterile, deionized water. The seeds are resuspended in 0.1% agar dissolved in water (w/v). Four to five seeds per well are plated on solid nutrient medium consisting of half-strength Murashige Skoog nutrient solution, pH 5.8 (Murashige and Skoog (1962) Physiologia Plantarum 15: 473-497). […] Seven to ten days after seeding growth inhibition is evaluated by comparison to wild type plants. Tolerance factor is calculated by dividing the plant growth IC50 value of transgenic plants containing a HPPD and/or HST sequence by that of wildtype plants. […]

[7] = Hordeum HPPD Wild-type, normalized on wildtype (Table 10)
[8] = Hordeum HPPD, normalized on Hordeum HPPD (Table 7)

T1 sequence (O48604 whole entry R146V/R147D/R148G/A164G): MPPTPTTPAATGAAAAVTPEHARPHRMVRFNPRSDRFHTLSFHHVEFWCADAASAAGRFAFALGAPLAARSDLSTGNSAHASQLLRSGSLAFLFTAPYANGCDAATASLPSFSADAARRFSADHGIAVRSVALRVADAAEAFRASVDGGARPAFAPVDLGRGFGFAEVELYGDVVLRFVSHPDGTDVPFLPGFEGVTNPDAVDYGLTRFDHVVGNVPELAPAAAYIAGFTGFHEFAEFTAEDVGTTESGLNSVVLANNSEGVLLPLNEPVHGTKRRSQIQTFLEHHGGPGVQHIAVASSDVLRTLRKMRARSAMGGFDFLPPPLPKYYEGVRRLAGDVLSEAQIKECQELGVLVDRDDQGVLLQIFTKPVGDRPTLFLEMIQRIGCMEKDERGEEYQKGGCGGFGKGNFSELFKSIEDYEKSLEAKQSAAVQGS
T3 sequence (P93836 whole entry M335H/P336A/E363Q): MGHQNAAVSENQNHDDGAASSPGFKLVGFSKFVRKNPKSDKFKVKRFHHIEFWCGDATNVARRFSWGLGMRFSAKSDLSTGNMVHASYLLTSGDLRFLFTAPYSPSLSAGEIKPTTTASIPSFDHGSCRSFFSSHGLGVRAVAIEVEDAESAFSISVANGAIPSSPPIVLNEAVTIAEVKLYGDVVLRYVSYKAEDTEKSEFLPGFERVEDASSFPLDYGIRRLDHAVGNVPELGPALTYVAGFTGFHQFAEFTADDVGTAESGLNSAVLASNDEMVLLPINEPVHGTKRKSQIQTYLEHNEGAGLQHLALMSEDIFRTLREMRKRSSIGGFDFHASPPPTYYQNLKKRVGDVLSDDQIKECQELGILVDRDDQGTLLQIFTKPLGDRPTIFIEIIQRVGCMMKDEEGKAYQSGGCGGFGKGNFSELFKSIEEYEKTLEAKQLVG
T2 sequence (O48604 whole entry R146V/R147D/R148G/A164G/V212I/P321R/L353M): as the sequence (O48604 whole entry R146V/R147D/R148G/A164G) above, with V212I, P321R, L353M counted along it

SMILES | Normalized tolerance index (TI) [1, 7] | Ki ([1]; Hordeum HPPD) | Normalized tolerance index (TI) [1, 8] | TI (tolerance index) ([1]; Hordeum HPPD) | Normalized tolerance index (TI) [2] | Normalized tolerance index (TI) [3] | Normalized tolerance index (TI) [4] | Normalized tolerance index (TI) [5] | Tolerance factor [6]
CC1=NOC(c2c(Cl)ccc(C3=C(O)c4ncccc4N(CC(F)F)S3(=O)=O)c2Cl)C1 (stereo not drawn) [Inhibitor 1, 3-[2,4-dichloro-3-(3-methyl-4,5-dihydroisoxazol-5-yl)phenyl]-1-(2,2-difluoroethyl)-2,2-dioxo-pyrido[3,2-c]thiazin-4-ol] | 1 | 2.7 nM | 1 | 1.19E−3 | 7.5 | 40.1 | 2.3 | 3 | 1
O=S1(=O)C(c2c(Cl)cc(Cl)nc2Cl)=C(O)c2ncccc2N1CC(F)F [Inhibitor 2, 1-(2,2-difluoroethyl)-2,2-dioxo-3-(2,4,6-trichloro-3-pyridyl)pyrido[3,2-c]thiazin-4-ol] | 1 | 2.6 nM | 1 | 1.13E−3 | 12 | 17.1 | 3 | 1.2 | 1
